Reference: ChEMBL document CHEMBL1137932, “Synthesis of S-alkyl L-homocysteine analogues of glutathione and their kinetic studies with gamma-glutamyl transpeptidase” (Bioorg Med Chem Lett, 2004)

Legend:
Assay type in all cases: tissue-based
[1] = target: T1, Glutathione hydrolase 1 proenzyme (Rattus norvegicus, UniProt P07314); test: Compound tested for the inhibition of Gamma-glutamyltranspeptidase in rat kidney at pH 8.0 at 37 degree C (Competitive inhibition)
[2] = target: T1, Glutathione hydrolase 1 proenzyme; test: Compound tested for the inhibition of Gamma-glutamyltranspeptidase in rat kidney at pH 8.0 at 37 degree C; N/0=No inhibition observed up to 20 mM
[3] = target: T1, Glutathione hydrolase 1 proenzyme; test: Compound tested for the inhibition of Gamma-glutamyltranspeptidase in rat kidney at pH 8.0 at 37 degree C

T1 sequence (P07314 1-379 limits assumed): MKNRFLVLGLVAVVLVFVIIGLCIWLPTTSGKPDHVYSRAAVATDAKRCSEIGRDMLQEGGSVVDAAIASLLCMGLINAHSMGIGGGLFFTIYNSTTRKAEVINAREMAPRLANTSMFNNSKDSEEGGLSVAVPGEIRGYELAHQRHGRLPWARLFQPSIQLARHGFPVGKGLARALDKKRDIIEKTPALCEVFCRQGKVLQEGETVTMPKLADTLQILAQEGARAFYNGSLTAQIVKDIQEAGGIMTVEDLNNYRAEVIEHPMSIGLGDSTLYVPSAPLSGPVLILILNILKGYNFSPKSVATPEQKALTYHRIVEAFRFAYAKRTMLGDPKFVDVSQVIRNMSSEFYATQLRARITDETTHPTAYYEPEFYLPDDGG
T1 sequence (P07314 380-568 limits assumed): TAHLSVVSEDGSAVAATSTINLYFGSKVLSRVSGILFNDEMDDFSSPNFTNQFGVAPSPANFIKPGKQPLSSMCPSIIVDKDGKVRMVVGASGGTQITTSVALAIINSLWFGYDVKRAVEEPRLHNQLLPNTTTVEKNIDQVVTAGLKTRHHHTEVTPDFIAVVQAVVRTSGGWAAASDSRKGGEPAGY

Structure (SMILES) | Ki [1] | other results
CS(=O)(=O)CC[C@H](N)C(=O)O [METHIONINE SULFONE] |  | Ki [2]: No inhibition to 20mM
CSCC[C@H](N)C(=O)O [METHIONINE] | 26900 µM | 
N[C@@H](CCS(=O)(=O)CCC(=O)NCC(=O)O)C(=O)O |  | Ki [3]: 3500 µM

More lines, main results first:

Ki [1] | Structure (SMILES) | other results
520 µM | N[C@@H](CCSCCC(=O)NCC(=O)O)C(=O)O | 
53 µM | NC(CC[S+]([O-])CCC(=O)NCC(=O)O)C(=O)O (configuration not stated) | 
5900 µM | C[S+]([O-])CC[C@H](N)C(=O)O (some centres not stated) [METHIONINE SULFOXIDE] | 
230 µM | N[C@@H](CC[S+]([O-])Cc1ccc(C(=O)NCC(=O)O)cc1)C(=O)O (some centres not stated) | 
